Patent EP1222194B1, “7-ACYLAMINO-3-HETEROARYLTHIO-3-CEPHEM CARBOXYLIC ACID ANTIBIOTICS AND PRODRUGS THEREOF” (priority 1999, dated 2001)
≈ marks a conversion by molar mass, not a printed value.

Columns and labels:
E. coli ATCC25992 = assay: Broth microdilution MIC (NCCLS); type: cell-based; details: Escherichia coli, Mueller-Hinton Broth, 24 h at 35 °C
Experimental: (§1) Compounds were evaluated for antimicrobial activity against a panel of bacterial strains using a broth microdilution assay performed as recommended by the NCCLS (1). The minimum inhibitory concentration (MIC) was defined as the lowest concentration of drug which prevented the growth of the bacteria. The following 16 organisms constituted the primary panel of evaluation:
(§2) For this primary panel, the assay was performed in Mueller-Hinton Broth (MHB) with a final bacterial inoculum of 5 x 10^5 CFU/mL (from an early-log phase culture) and a final volume of 100 µL. Control drugs, including imipenem, vancomycin, Penicillin G, dicloxacillin (vs. MSSA ATCC29213 only), and new compounds were prepared at a concentration equivalent to 2-fold the desired final concentration. Dilution of compounds were prepared directly in the plates by serial 2-fold dilution using a multichannel pipette. Positive and negative growth control were included in each plate.
(§3) The bacterial inocula were prepared as follows. For each strain one isolated colony was used to inoculate a volume of 8 mL of Mueller-Hinton broth and these cultures were incubated overnight (20h) at 35 °C in a shaking incubator. At the exception of Enterococcus strains, culture were then diluted 1:10 and allowed to grow for an additional one hour at 35 °C in a shaking incubator. The inocula were prepared by diluting the early log-phase (1h) cultures 1:1000 with fresh Mueller-Hinton broth. E. faecium and E. faecalis were prepared by diluting overnight cultures 1:333 and 1:666, respectively, with fresh Mueller-Hinton broth . A volume of 50 µL of the inocula was added to each well. […] The exact inocula were determined by applying […] of 10-fold serial dilution of the bacterial suspensions on TSA. After overnight incubation at 35 °C, colony forming units were manually counted.
(§4) Microtiter plates were incubated during 24 h at 35 °C and were read using a microtiterplate reader (Molecular Devices) at 650 nm as well as by visual observation using a microtiterplate reading mirror.

E. faecalis ATCC 29212 = assay: Broth microdilution MIC (NCCLS); type: cell-based; details: Enterococcus faecalis, ATCC29212, Mueller-Hinton Broth, 24 h at 35 °C
Experimental: as §1, §2, §3, §4

E. faecalis VanB (Van^R) = assay: Broth microdilution MIC (NCCLS); type: cell-based; details: Enterococcus faecalis, Mueller-Hinton Broth, 24 h at 35 °C
Experimental: as §1, §2, §3, §4

E. faecium A491 (Amp^R) = assay: Broth microdilution MIC (NCCLS); type: cell-based; details: Enterococcus faecium, Mueller-Hinton Broth, 24 h at 35 °C
Experimental: as §1, §2, §3, §4

E. faecium ATCC 35667 = assay: Broth microdilution MIC (NCCLS); type: cell-based; details: Enterococcus faecium, ATCC35667, Mueller-Hinton Broth, 24 h at 35 °C
Experimental: as §1, §2, §3, §4

E. faecium VanA (Van^R) = assay: Broth microdilution MIC (NCCLS); type: cell-based; details: Enterococcus faecium, Mueller-Hinton Broth, 24 h at 35 °C
Experimental: as §1, §2, §3, §4

P. aeruginosa ATCC 27853 = assay: Broth microdilution MIC (NCCLS); type: cell-based; details: Pseudomonas aeruginosa, ATCC27853, Mueller-Hinton Broth, 24 h at 35 °C
Experimental: as §1, §2, §3, §4

[1] = system: S. aureus ATCC 33593 (Meth^R); assay: Broth microdilution MIC (NCCLS); type: cell-based; details: Staphylococcus aureus, ATCC33593, Mueller-Hinton Broth, 24 h at 35 °C
Experimental: as §1, §2, §3, §4

[2] = system: S. aureus Spain #356 (Meth^R); assay: Broth microdilution MIC (NCCLS); type: cell-based; details: Staphylococcus aureus, Mueller-Hinton Broth, 24 h at 35 °C
Experimental: as §1, §2, §3, §4

[3] = Serum binding determination by ultrafiltration and HPLC; type: in vitro ADME; details: % of compound bound to serum as determined by HPLC
Experimental: The more accurate measurement of binding of selected cephalosporin compounds was performed using HPLC as described below. […] Serum is placed in a shaking water bath preheated to 37 ± 2 °C for 5 to 10 minutes to heat serum to 37 °C. Serum pH is measured and recorded, while serum is 37 °C using pH paper. Measurements are taken twice, 3 minutes apart. If the pH is not 7.4 ± 0.4 then the pH is adjusted by blowing 5% CO2/95% O2 over the serum. After blowing for several minutes, serum is heated to 37 °C and measurements are taken twice, 3 minutes apart using pH paper to determine the pH. Store at 4 °C. The serum is stable for 7 days. Always check the pH before each use. • 2. Before any centrifugation, the centrifuge temperature must be adjusted to 25 ± 2 °C. Preheat the centrifuge by spinning for 45 minutes at the same speed to be used in the assay (1900 g) with two tubes of water in the rotor and the temperature set to 25 °C. When the centrifuge stops immediately check the temperature of the tubes of water with a calibrated thermometer. The temperature of the tubes of water must be 25 ± 2 °C. […] Continue spinning and measuring the temperature and adjusting the setting until the temperature is 25 ± 2 °C. • 3. Prepare blank ultrafiltrate by pipetting blank pH 7.4 serum into an Amicon Centrifree Micropartition devices, centrifuge: fixed angle rotor, 1900 g, 25 °C for 20 minutes. Heat ultrafiltrate in a shaking water bath preheated to 37 °C. Measure ultrafiltrate pH and adjust to the pH of the serum (7.4 ± 0.2). • 4. Pipette 190 ul of blank ultrafiltrate into a set of labeled 1.7 mL polypropylene microfuge tubes for 3 of each level. Pipette 10 µL of the appropriate standard stock 50, 200, 1000 µg/mL to make standards 2.5, 10, and 50 µg/mL respectively. Vortex each tube well. One set of the standard samples are mixed 1:1 with 0.2 M acetic acid and injected onto the HPLC (MSTD). These samples are the membrane standards and will be used to compare to the other standards. Pipette 190 ul of ultrafiltrate and spike with 10 ul of whatever solution (e.g. water) the standards are prepared in to make the zero standard. • 5. Pipette 475 µL of blank heated pH 7.4 serum into a set of labeled 1.7 mL polypropylene microfuge tubes for 2 of each (Serum A and Serum B). Pipette 25 µL of the 1000 µg/mL standard stock into each tube, vortex each tube well to make serum standard 50 µg/mL. Remove 100 µL of serum and deproteinate with 200 µL 4% TCA while vortexing to make serum time 0 (serum 50, T0). Place serum tubes in a shaking water bath at 37 °C for 10 minutes. Pipet 100 µL of serum out and deproteinate with 200 µL 4% TCA, to make serum time 10 min (serum 50, T10). Pipet 200 ul serum standard 50 µg/mL into an ultrafiltration device, which is not treated with TCA, to determine free drug in samples (Rat Serum 50). • 6. Transfer serum and standard samples to labeled Amicon Centrifree Micropartition filters, and centrifuge: 1900 g, 25 °C for 10 minutes. The extracted serum samples (T0 and T 10) are spun down and supernatant is loaded into HPLC vials. • 7. 100 µL of ultrafiltrate sample and 100 µL of 0.2 M acetic acid were mixed together to stabilize the compound in ultrafiltrate. • 8. Transfer entire stabilized ultrafiltrate solution to a labeled autoinjector HPLC vial cap with Teflon septa, and inject on HPLC.
Peak height or area is used in a weighted linear regression.

SMILES	MIC (E. coli ATCC25992)	MIC (E. faecalis ATCC 29212)	MIC (E. faecalis VanB (Van^R))	MIC (E. faecium A491 (Amp^R))	MIC (E. faecium ATCC 35667)	MIC (E. faecium VanA (Van^R))	MIC (P. aeruginosa ATCC 27853)	MIC [1]	MIC [2]	fraction unbound ([3]; rat serum)	fraction unbound ([3]; rhesus monkey)
NCCSCc1ccncc1SC1=C(C(=O)O)N2C(=O)[C@@H](NC(=O)/C(=N\O)c3nc(N)sc3Cl)[C@H]2SC1 [Cmpd 3, (7R)-7-[(Z)-2-(2-amino-5-chlorothiazol-4-yl)-2-(hydroxyimino)acetamido]-3-[4-(2-aminoethylthiomethyl)pyrid-3-ylthio]-3-cephem-4-carboxylic acid]	4 µg/mL (≈ 6.64 µM)	0.13 µg/mL (≈ 0.216 µM)	0.5 µg/mL (≈ 0.83 µM)	32 µg/mL (≈ 53.1 µM)	1 µg/mL (≈ 1.66 µM)	2 µg/mL (≈ 3.32 µM)	32 µg/mL (≈ 53.1 µM)	1 µg/mL (≈ 1.66 µM)	1 µg/mL (≈ 1.66 µM)	0.03	0.03
N=C(N)NCCSCc1ncccc1SC1=C(C(=O)O)N2C(=O)[C@@H](NC(=O)/C(=N\O)c3nsc(N)n3)[C@H]2SC1 [Cmpd 2-R, (7R)-7-[(Z)-2-(5-amino-1,2,4-thiadiazol-3-yl)-2-(hydroxyimino)acetamido]-3-[2-(2-guanidinoethylthiomethyl)pyrid-3-ylthio]-3-cephem-4-carboxylic acid]	1 µg/mL (≈ 1.64 µM)	1 µg/mL (≈ 1.64 µM)		32 µg/mL (≈ 52.4 µM)	0.5 µg/mL (≈ 0.819 µM)	1 µg/mL (≈ 1.64 µM)	> 32 µg/mL	1 µg/mL (≈ 1.64 µM)	1 µg/mL (≈ 1.64 µM)		
NCCSCc1ncccc1SC1=C(C(=O)O)N2C(=O)[C@@H](NC(=O)/C(=N\O)c3nsc(N)n3)[C@H]2SC1 [Cmpd 2, (7R)-7-[(Z)-2-(5-amino-1,2,4-thiadiazol-3-yl)-2-(hydroxyimino)acetamido]-3-[2-(2-aminoethylthiomethyl)pyrid-3-ylthio]-3-cephem-4-carboxylic acid]	1 µg/mL (≈ 1.76 µM)	1 µg/mL (≈ 1.76 µM)	0.5 µg/mL (≈ 0.879 µM)	> 32 µg/mL	1 µg/mL (≈ 1.76 µM)	2 µg/mL (≈ 3.52 µM)	> 32 µg/mL	1 µg/mL (≈ 1.76 µM)	1 µg/mL (≈ 1.76 µM)	0.26	0.19
NCCSCc1ncccc1SC1=C(C(=O)O)N2C(=O)[C@@H](NC(=O)/C(=N\O)c3nc(N)sc3Cl)[C@H]2SC1 [Cmpd 1, (7R)-7-[(Z)-2-(2-amino-5-chlorothiazol-4-yl)-2-(hydroxyimino)acetamido]-3-[2-(2-aminoethylthiomethyl)pyrid-3-ylthio]-3-cephem-4-carboxylic acid]	4 µg/mL (≈ 6.64 µM)	0.06 µg/mL (≈ 0.0996 µM)	0.13 µg/mL (≈ 0.216 µM)	8 µg/mL (≈ 13.3 µM)	0.5 µg/mL (≈ 0.83 µM)	1 µg/mL (≈ 1.66 µM)	32 µg/mL (≈ 53.1 µM)	1 µg/mL (≈ 1.66 µM)	1 µg/mL (≈ 1.66 µM)	0.15	
N=C(N)NCCSCc1ncccc1SC1=C(C(=O)O)N2C(=O)[C@@H](NC(=O)/C(=N\O)c3nc(N)sc3Cl)[C@H]2SC1 [Cmpd 2-S, (7R)-7-[(Z)-2-(2-amino-5-chlorothiazol-4-yl)-2-(hydroxyimino)acetamido]-3-[2-(2-guanidinoethylthiomethyl)pyrid-3-ylthio]-3-cephem-4-carboxylic acid]	4 µg/mL (≈ 6.21 µM)	0.06 µg/mL (≈ 0.0931 µM)	0.06 µg/mL (≈ 0.0931 µM)	4 µg/mL (≈ 6.21 µM)	0.25 µg/mL (≈ 0.388 µM)	0.5 µg/mL (≈ 0.776 µM)	> 32 µg/mL	0.5 µg/mL (≈ 0.776 µM)	0.5 µg/mL (≈ 0.776 µM)	0.24	0.12
